From ChEMBL document CHEMBL1141810, “Excavatolides F-M, new briarane diterpenes from the gorgonian Briareum excavatum” (1999) come the findings set out here.

Assay type in all cases: functional
Holding throughout (conditions): read-out: ED50 (the source's name)

One assay deals with HT-29. The assay is described as follows: Cytotoxicity against human HT-29 cells by MTT assay.
In the next assay the test system is KB. The assay is described as follows: Cytotoxicity against human KB cells by MTT assay. (Tetrazolium assays rely on reduction of a dye to a coloured formazan, in cell work by metabolically active cells.)
For another assay, the system named is A549. Put plainly: Cytotoxicity against human A549 cells by MTT assay.
The subject of the next assay is P388. The assay is described as follows: Cytotoxicity against mouse P388 cells by MTT assay.

In brackets after ≈: the same amount, converted by molar mass.

Consider `CCCC(=O)O[C@H]1C[C@H](OC(C)=O)[C@@]2(C)[C@H]([C@H]1C)[C@@H](OC(C)=O)[C@]13O[C@@]1(C)C(=O)O[C@H]3/C=C(C)\C=C\[C@@H]2OC(C)=O` [EXCAVATOLIDE F], for which the EC50 in the assay with HT-29 was 5.5 µg/mL (≈ 9.54 µM); in the assay with KB, 7 µg/mL (≈ 12.1 µM); in the assay on A549, 5.2 µg/mL (≈ 9.02 µM); in the assay on P388, 6.2 µg/mL (≈ 10.8 µM).

`CC(=O)O[C@H]1C/C(C)=C\[C@@H]2OC(=O)[C@]3(C)O[C@]23[C@H](O)[C@H]2[C@@H](C)[C@@H](O)C[C@H](OC(C)=O)[C@]2(C)[C@@H]1O` [EXCAVATOLIDE M]: the EC50 with HT-29 turned out to be 2.2 µg/mL (≈ 4.56 µM); in the assay on KB, 1 µg/mL (≈ 2.07 µM); in the assay with A549, 0.1 µg/mL (≈ 0.207 µM); in the assay on P388, 0.001 µg/mL (≈ 0.00207 µM).

Turning to `CC(=O)O[C@H]1C[C@H](OC(C)=O)[C@@]2(C)[C@H]([C@H]1C)[C@@H](OC(C)=O)[C@]13O[C@@]1(C)C(=O)O[C@H]3/C=C(/C)C[C@H](OC(C)=O)[C@H]2OC(C)=O` [EXCAVATOLIDE K], the EC50 in the assay with HT-29 worked out at 1.3 µg/mL (≈ 2.14 µM); with KB it was 3.3 µg/mL (≈ 5.42 µM); with A549, 3 µg/mL (≈ 4.93 µM); in the assay on P388, 0.9 µg/mL (≈ 1.48 µM).

Consider `CCCC(=O)O[C@H]1C/C(C)=C\[C@@H]2OC(=O)[C@]3(C)O[C@]23[C@H](OC(C)=O)[C@H]2[C@@H](C)[C@@H](OC(C)=O)C[C@H](OC(C)=O)[C@]2(C)[C@@H]1OC(C)=O` [EXCAVATOLIDE I], for which the EC50 with HT-29, in the assay with KB, in the assay on A549 and with P388 was over 50 µg/mL throughout.

In the case of `CCCC(=O)O[C@H]1C[C@H](OC(C)=O)[C@@]2(C)[C@H]([C@H]1C)[C@@H](OC(C)=O)[C@]13O[C@@]1(C)C(=O)O[C@H]3/C=C(/C)C[C@H](OC(=O)CCC)[C@H]2OC(C)=O` [EXCAVATOLIDE H], the EC50 in the assay with HT-29, in the assay on KB, in the assay on A549 and in the assay with P388 was over 50 µg/mL each time.

As to `CCCC(=O)O[C@H]1C[C@H](OC(C)=O)[C@@]2(C)[C@H]([C@H]1C)[C@@H](OC(C)=O)[C@]13O[C@@]1(C)C(=O)O[C@H]3/C=C(/C)C[C@H](OC(C)=O)[C@H]2OC(C)=O` [EXCAVATOLIDE J], the EC50 with HT-29 is 5.2 µg/mL (≈ 8.17 µM); with KB, 6.5 µg/mL (≈ 10.2 µM); with A549, 5.2 µg/mL (≈ 8.17 µM); with P388 it was 3.8 µg/mL (≈ 5.97 µM).

Regarding `CC(=O)O[C@H]1C[C@H](OC(C)=O)[C@@]2(C)[C@H]([C@H]1C)[C@@H](OC(C)=O)[C@]13O[C@@]1(C)C(=O)O[C@H]3/C=C(/C)CC[C@H]2OC(C)=O` [EXCAVATOLIDE G], the EC50 in the assay with HT-29 was over 50 µg/mL; in the assay with KB, over 50 µg/mL; in the assay on A549, 22.8 µg/mL (≈ 41.4 µM); in the assay with P388, 15.7 µg/mL (≈ 28.5 µM).
